Numbers after ± are expanded uncertainties.

The nature of data set [1]: Molar enthalpy of transition or fusion. As to conditions: DSC.
The conditions of data set [2]: DTA; for Normal melting temperature: Crystal 1.

For `Clc1c(Cl)c(Cl)c(Cl)c(Cl)c1Cl` [hexachlorobenzene], in data set [1] (Crystal), the “Molar enthalpy of transition or fusion” value was 5.72 ± 0.17 kcal/mol. In data set [2], the Normal melting temperature was found to be 231 ± 0.5 °C.
As for `Oc1c(Cl)c(Cl)c(Cl)c(Cl)c1Cl` [pentachlorophenol], the “Molar enthalpy of transition or fusion” value in data set [1] (Crystal 1) worked out at 3.68 ± 0.122 kcal/mol; in data set [1] (Crystal 3), 2.15 ± 0.0837 kcal/mol. The Normal melting temperature in data set [2] worked out at 191.7 ± 0.5 °C. In addition, the figures for the Triple point temperature in data set [2] (Crystal 2), in data set [2] (Crystal 3) and in data set [2] (Crystal 4) were 441.6 ± 0.5 K, 340.2 ± 0.5 K and 287.4 ± 0.5 K, respectively.

The values above are taken from the NIST ThermoML archive (doi:10.1016/j.tca.2015.01.017).
